Assay results as given in article PMC6017257, “Towards a Novel Class of Multitarget-Directed Ligands: Dual P2X7–NMDA Receptor Antagonists” (Molecules : A Journal of Synthetic Chemistry and Natural …, 2018).
Read-outs that look alike come from different tables or passages of the source.

Experiments:
human P2X7 receptor = molecular target: T1, human P2X7 receptor (Homo sapiens, UniProt Q99572); test: BzATP-induced ethidium bromide uptake (dye uptake) in hP2X7-expressing HEK293 cells; format: cell-based; conditions: for IC50: ethidium bromide accumulation stimulated by BzATP 6 µM, hP2X7-expressing HEK293 cells, from concentration-response curves; for inhibition at 1 µM / inhibition at 10 µM: P2X7, relative to maximum ethidium bromide uptake stimulated by BzATP 6 µM; for inhibition at 1 µM: at 1 μM (right value); for inhibition at 10 µM: at 10 µM (left value)
T1 construct: expressed in transfected cells; host or cells: HEK293
T1 sequence (Q99572 1-595): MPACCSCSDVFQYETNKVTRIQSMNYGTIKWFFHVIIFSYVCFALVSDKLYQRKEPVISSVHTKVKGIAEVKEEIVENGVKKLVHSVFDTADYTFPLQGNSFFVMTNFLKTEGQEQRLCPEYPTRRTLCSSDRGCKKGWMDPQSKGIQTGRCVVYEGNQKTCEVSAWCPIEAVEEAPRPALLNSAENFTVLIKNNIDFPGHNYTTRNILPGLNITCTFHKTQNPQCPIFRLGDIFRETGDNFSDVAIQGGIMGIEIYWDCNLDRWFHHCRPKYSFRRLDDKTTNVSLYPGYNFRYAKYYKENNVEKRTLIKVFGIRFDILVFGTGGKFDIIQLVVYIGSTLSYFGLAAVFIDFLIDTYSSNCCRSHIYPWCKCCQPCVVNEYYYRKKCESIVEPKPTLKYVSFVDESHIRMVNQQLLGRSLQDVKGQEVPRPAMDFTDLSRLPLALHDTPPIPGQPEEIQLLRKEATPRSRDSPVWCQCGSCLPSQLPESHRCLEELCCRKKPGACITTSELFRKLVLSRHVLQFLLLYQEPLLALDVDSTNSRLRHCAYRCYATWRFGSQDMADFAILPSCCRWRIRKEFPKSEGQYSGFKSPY
Experimental: All new compounds were evaluated for their antagonistic effects on 2’(3’)-O-(4-benzoylbenzoyl)-ATP (BzATP)-induced ethidium bromide uptake in human embryonic kidney 293 (HEK 293) cells, stably expressing the human P2X7 receptor, using P2X7 receptor antagonist AZD9056—AstraZeneca’s clinical drug candidate [46]—as a positive control. […] However, taking into account that we wanted to design a compound endowed with low micromolar inhibitory potencies against both the P2X7 and NMDA receptors, compound 9g suited our purpose.
HEK293 cells stably expressing the P2X7 receptor were maintained in Dulbecco's modified Eagle's medium (DMEM) supplemented with 10% fetal bovine serum (FBS), 2 mM L-glutamine, and antibiotics (50 U/mL penicillin and […] streptomycin) in a humidified 5% CO2 atmosphere at 37 °C. We used Lipofectamine as a transfection reagent with a pcDNA3.1 vector-based plasmid harbouring hP2X7R (Invitrogen, Waltham, MA, USA). After diluting to 2.5 × 10^6 cells/mL, a buffer composed of 10 mM HEPES, 5 mM N-methyl-D-glutamine, 5.6 mM KCl, 10 mM D-glucose, and 0.5 mM CaCl2 (pH 7.4), supplemented with either 280 mM sucrose or 140 mM NaCl and an 80 μL aliquot, was added to each well of 96-well culture plates. The test compounds and 2(3’)-O-(4-benzoylbenzoyl)-ATP (BzATP) were then added, and the cells were incubated for 2 h in a humidified 5% CO2 atmosphere at 37 °C. After incubation, a Bio-Tek FL600 fluorescence plate reader (Winooski, VT, USA) was used to measure the […] at an excitation wavelength of 530 nm and an emission wavelength of 590 nm. The inhibition (percent) of ethidium ion uptake was expressed as a relative value of the maximum accumulation when stimulated with BzATP only. To calculate IC50 values, we calculated a series of dose–response data using nonlinear regression analysis (i.e., percentage accumulation of ethidium bromide vs compound concentration). The concentration of ethidium bromide was 0.1 mM.

NMDA receptors = test: Inhibition of NMDA-evoked increase in intracellular calcium in rat cultured cerebellar granule neurons; format: cell-based; conditions: for % inhibition: relative to maximum intracellular calcium stimulated by 100 µM NMDA with 10 µM glycine
Experimental: Additionally, to evaluate whether the synthesized compounds were able to antagonize the NMDA receptors, we measured their effects on the increase in intracellular calcium evoked by NMDA (100 μM, in the presence of 10 μM of glycine) on rat-cultured cerebellar granule neurons.
The functional assay of antagonist activity at the NMDA receptors was performed using primary cultures of rat cerebellar granule neurons that were prepared according to established protocols. Cells were grown on 10 mm poly-L-lysine coated glass cover slips, and used for the experiments after 6–9 days in vitro. Cells were loaded with 6 µM Fura-2 AM (ThermoFisher Scientific-Molecular Probes) for 30 min. Afterwards, the coverslip was mounted on a quartz cuvette containing a Locke-Hepes buffer using a special holder. Measurements were performed using a PerkinElmer LS-55 fluorescence spectrometer (Waltham, MA, USA) equipped with a fast-filter accessory, under mild agitation and at 37 °C. Analysis of each sample was recorded in real time for 1600 s. After stimulation with NMDA (100 µM, in the presence of 10 µM glycine), increasing cumulative concentrations of the compound to be tested were added. The percentages of inhibition at every tested concentration were analyzed using a non-linear regression curve fitting analysis by using the software GraphPad Prism 5.0 (GraphPad Software Inc., La Jolla, CA, USA).
Table S1. NMDA antagonist activity in rat cerebellar granule cells. […]
aPercentage inhibition values at 100 µM (left) and 300 μM (right) were expressed as percentages, relative to maximum intracellular calcium concentration stimulated by 100 µM NMDA in the presence of 10 µM of glycine. All experiments were repeated at least three times. bIC50 value was obtained from concentration response curves.

hP2X7 [1] = tested on: hP2X7; design: method as in PMID 18438986; conditions: read-out: P2X7R antagonist activity IC50; cited from earlier work
NMDAR = conditions: cited from earlier work
hP2X7 [2] = tested on: hP2X7; design: method as in PMID 22400713; conditions: read-out: P2X7R antagonist IC50; cited from earlier work

Row | melting point [°C] | inhibition at 1 µM (human P2X7 receptor) [%] | inhibition at 10 µM (human P2X7 receptor) [%] | Compound | % inhibition (NMDA receptors; at 100 µM (left value)) [%] | % inhibition (NMDA receptors; at 300 μM (right value)) [%] | other results
1 | 300 to 302 | – | – | CC12CC3(C)CC(N)(C1)CC(C(=O)NNc1c(Cl)cncc1Cl)(C2)C3 [Compound 15a, 3-Amino-N'-(3,5-dichloropyridin-4-yl)-5,7-dimethyladamantane-1-carbohydrazide] | 20 | 31 | IC50 (human P2X7 receptor): 9.9 ± 0.7 µM; NMDA receptor inhibition (in words) (NMDA receptors; rat cerebellar granule neurons): unable to significantly inhibit the NMDA receptor even at millimolar concentrations
2 | 153 to 156 | 16 | 23 | NC12CC3CC(C1)CC(C(=O)NNc1c(Cl)cccc1Cl)(C3)C2 [Compound 9b, 3-Amino-N'-(2,6-dichlorophenyl)adamantane-1-carbohydrazide] | 17 | 38 | –
3 | 200 to 202 | 17 | 15 | NC12CC3CC(C1)CC(C(=O)NNc1cccc(Cl)c1F)(C3)C2 [Compound 9f, 3-Amino-N'-(3-chloro-2-fluorophenyl)adamantane-1-carbohydrazide] | 11 | 18 | –
4 | 215 to 219 | 17 | 42 | NC12CC3CC(C1)CC(C(=O)NNc1cccc(Cl)c1Cl)(C3)C2 [Compound 9c, 3-Amino-N'-(2,3-dichlorophenyl)adamantane-1-carbohydrazide] | 23 | 30 | –
5 | 220 to 222 | – | – | NC12CC3CC(C1)CC(C(=O)NNc1ccccc1Cl)(C3)C2 [Compound 9g, 3-Amino-N'-(2-chlorophenyl)adamantane-1-carbohydrazide] | – | – | IC50 (human P2X7 receptor): 6 ± 0.6 µM; IC50 (NMDA receptors; NMDA 100 μM with 10 μM glycine, rat cerebellar granule neurons, read-out: IC50 (NMDA receptor)): 468 ± 23 µM; NMDA receptor inhibition (in words) (NMDA receptors; rat cerebellar granule neurons): some activity as an NMDA receptor antagonist
6 | 191 to 192 | 27 | 53 | NC12CC3CC(C1)CC(C(=O)NNc1c(Cl)cncc1Cl)(C3)C2 [Compound 9e, 3-Amino-N'-(3,5-dichloropyridin-4-yl)adamantane-1-carbohydrazide] | 6 | 16 | –
7 | 213 to 216 | 37 | 48 | NC12CC3CC(C1)CC(C(=O)NNc1ccccc1C(F)(F)F)(C3)C2 [Compound 9a, 3-Amino-N'-[2-(trifluoromethyl)phenyl]adamantane-1-carbohydrazide] | 5 | 14 | –
8 | 280 to 282 | – | – | CC12CC3(C)CC(N)(C1)CC(C(=O)NNc1ccccc1Cl)(C2)C3 [Compound 15b, 3-Amino-N'-(2-chlorophenyl)-5,7-dimethyladamantane-1-carbohydrazide] | 7 | 8 | IC50 (human P2X7 receptor): 16.1 ± 1.6 µM; NMDA receptor inhibition (in words) (NMDA receptors; rat cerebellar granule neurons): unable to significantly inhibit the NMDA receptor even at millimolar concentrations
9 | 185 to 186 | 21 | 24 | NC12CC3CC(C1)CC(C(=O)NNc1ccc(C(F)(F)F)cc1Cl)(C3)C2 [Compound 9d, 3-Amino-N'-[2-chloro-4-(trifluoromethyl)phenyl]adamantane-1-carbohydrazide] | 20 | – | –

Continued, compound first:

Row | Compound | melting point [°C] | inhibition at 1 µM (human P2X7 receptor) [%] | inhibition at 10 µM (human P2X7 receptor) [%] | % inhibition (NMDA receptors; at 100 µM (left value)) [%] | % inhibition (NMDA receptors; at 300 μM (right value)) [%] | other results
10 | O=C(NCC12CC3CC(CC(C3)C1)C2)c1cc(CCCNCCCO)ccc1Cl [AZD9056, reference compound] | – | – | – | – | – | IC50 (human P2X7 receptor): 0.0041 ± 0.0007 µM
11 | O=C(NNc1ccccc1Cl)C12CC3CC(CC(C3)C1)C2 [Compound 1a] | – | – | – | – | – | IC50 (hP2X7 [1]): 0.0116 ± 0.002 µM
12 | CC12CC3CC(C)(C1)CC(N)(C3)C2 [memantine] | – | – | – | – | – | fold more potent as an NMDA inhibitor than amantadine (NMDAR): 60 fold
13 | CC12CC3CC(C)(C1)CC(C(=O)NNc1c(Cl)cncc1Cl)(C3)C2 [Compound 3] | – | – | – | – | – | IC50 (hP2X7 [2]): 0.013 ± 0.001 µM
14 | NC12CC3CC(CC(C3)C1)C2 [amantadine] | – | – | – | – | – | IC50 (NMDAR; amantadine, read-out: NMDAR antagonist IC50): 92 ± 29 µM
15 | O=C(NNc1ccccc1Cl)C12CC3CC(CC(O)(C3)C1)C2 [Compound 1b] | – | – | – | – | – | IC50 (hP2X7 [1]): 0.275 ± 0.05 µM
16 | NC12CC3CC(C1)CC(C(=O)NCc1ccccc1Cl)(C3)C2 [Compound 2, 3-Amino-N-(2-chlorobenzyl)adamantane-1-carboxamide] | 186 to 189 | – | – | 18 | 30 | –
